This experiment concerns the target T1, mouse GLP-1 receptor endogenously expressed in βTC6 cells (Mus musculus, UniProt O35659).
T1 construct: host or cells: βTC6 cells
T1 sequence (O35659 22-463): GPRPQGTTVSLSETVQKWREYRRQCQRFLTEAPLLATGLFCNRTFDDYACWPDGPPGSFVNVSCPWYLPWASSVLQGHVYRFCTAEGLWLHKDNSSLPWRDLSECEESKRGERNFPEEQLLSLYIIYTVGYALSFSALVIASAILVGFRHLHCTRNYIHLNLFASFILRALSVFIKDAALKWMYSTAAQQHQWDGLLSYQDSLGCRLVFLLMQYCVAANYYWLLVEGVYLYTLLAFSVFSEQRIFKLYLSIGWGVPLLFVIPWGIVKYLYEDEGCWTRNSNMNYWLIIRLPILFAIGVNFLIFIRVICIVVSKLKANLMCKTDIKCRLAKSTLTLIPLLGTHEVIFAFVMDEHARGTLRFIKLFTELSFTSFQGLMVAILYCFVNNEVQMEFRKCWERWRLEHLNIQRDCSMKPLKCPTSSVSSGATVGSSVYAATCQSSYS
Description: cAMP production functional assay (HTRF), agonist activity at GLP-1R. The experiment is classed as cell-based. The conditions noted are these: cAMP production; Table 1. The procedure:
The agonistic activity of these hybrids were obtained by functional assays using cells expressing the […] and by measuring the receptor-mediated cAMP produced (see supporting information).
In vitro pharmacology (EC50). […] Following incubation, the cells were lysed and the fluorescence acceptor (D2-labeled cAMP) and fluorescence donor (anti-cAMP antibody labeled with europium cryptate) were added.

Each structure is given as a SMILES string. Numbered stars: 1 amine (or outer) side, 2 acyl side, 3 side chain; on linkers, the order of the positions; unused ones are H or OH. Bridge positions count the residues as written; N and C are the ends. Peptide text beside a SMILES is read from it. I, II: the chains in the order shown. X1 = C[C@@H](CNC(=O)N[C@@H](C)CNC(=O)[*:2])NC(=O)NC[C@H](C)N[*:1]; X7 = C[C@@H](CNC(=O)N[C@@H](C)CNC(=O)[*:1])NC(=O)NC[C@H](C)N[*:2]; X6 = CC(CNC(=O)NC(C)CNC(=O)[*:1])NC(=O)NCC(C)N[*:2]; X8 = CC(CNC(=O)NC(C)CNC(=O)[*:2])NC(=O)NCC(C)N[*:1] Where only a bound is given, the exact number is not on record here.

`CC[C@H](C)[C@H](NC(=O)[C@H](Cc1ccccc1)NC(=O)[C@H](CCC(=O)O)NC(=O)[C@H](CCCCN)NC(=O)NC[C@H](C)NC(=O)NC[C@H](C)NC(=O)NC[C@H](C)NC(=O)[C@H](CCC(=O)O)NC(=O)[C@H](CC(C)C)NC(=O)[C@H](Cc1ccc(O)cc1)NC(=O)[C@H](CO)NC(=O)[C@H](CO)NC(=O)[C@@H](NC(=O)[C@H](CC(=O)O)NC(=O)[C@H](CO)NC(=O)[C@@H](NC(=O)[C@H](Cc1ccccc1)NC(=O)[C@@H](NC(=O)CNC(=O)[C@H](CCC(=O)O)NC(=O)CNC(=O)[C@@H](N)Cc1c[nH]cn1)[C@@H](C)O)[C@@H](C)O)C(C)C)C(=O)N[C@@H](C)C(=O)N[C@@H](Cc1c[nH]c2ccccc12)C(=O)N[C@@H](CC(C)C)C(=O)N[C@H](C(=O)N[C@@H](CCCCN)C(=O)NCC(=O)N[C@@H](CCCNC(=N)N)C(=O)NCC(N)=O)C(C)C` [Compound 12, GG2[A^UA^UA^U]^16-19]: the “Potency (%), percentage of potency compare to GLP-1-G^2” value (shortened to “Potency (%), percentage”) worked out at 0.1%.
On to `CC[C@H](C)[C@H](NC(=O)[C@H](Cc1ccccc1)NC(=O)[C@H](CCC(=O)O)NC(=O)[C@H](CCCCN)NC(=O)[C@H](C)NC(=O)[C@H](C)NC(=O)[C@H](CCC(N)=O)NC(=O)CNC(=O)[C@H](CCC(=O)O)NC(=O)NC[C@H](C)NC(=O)NC[C@H](C)NC(=O)NC[C@H](C)NC(=O)[C@@H](NC(=O)[C@H](CC(=O)O)NC(=O)[C@H](CO)NC(=O)[C@@H](NC(=O)[C@H](Cc1ccccc1)NC(=O)[C@@H](NC(=O)CNC(=O)[C@H](CCC(=O)O)NC(=O)CNC(=O)[C@@H](N)Cc1c[nH]cn1)[C@@H](C)O)[C@@H](C)O)C(C)C)C(=O)N[C@@H](C)C(=O)N[C@@H](Cc1c[nH]c2ccccc12)C(=O)N[C@@H](CC(C)C)C(=O)N[C@H](C(=O)N[C@@H](CCCCN)C(=O)NCC(=O)N[C@@H](CCCNC(=N)N)C(=O)NCC(N)=O)C(C)C` [Compound 4, GG2[A^UA^UA^U]^11-14] (I: EGQAAKEFIAWLVKGRG-NH2 / II: H-HGEGTFTSDV; linker I:N-II:C via X7), for which the “Potency (%), percentage” value worked out at 0.2%.
The figure for `CC[C@H](C)[C@H](NC(=O)[C@H](Cc1ccccc1)NC(=O)[C@H](CCC(=O)O)NC(=O)NC[C@H](C)NC(=O)NC[C@H](C)NC(=O)NC[C@H](C)NC(=O)CNC(=O)[C@H](CCC(=O)O)NC(=O)[C@H](CC(C)C)NC(=O)[C@H](Cc1ccc(O)cc1)NC(=O)[C@H](CO)NC(=O)[C@H](CO)NC(=O)[C@@H](NC(=O)[C@H](CC(=O)O)NC(=O)[C@H](CO)NC(=O)[C@@H](NC(=O)[C@H](Cc1ccccc1)NC(=O)[C@@H](NC(=O)CNC(=O)[C@H](CCC(=O)O)NC(=O)CNC(=O)[C@@H](N)Cc1c[nH]cn1)[C@@H](C)O)[C@@H](C)O)C(C)C)C(=O)N[C@@H](C)C(=O)N[C@@H](Cc1c[nH]c2ccccc12)C(=O)N[C@@H](CC(C)C)C(=O)N[C@H](C(=O)N[C@@H](CCCCN)C(=O)NCC(=O)N[C@@H](CCCNC(=N)N)C(=O)NCC(N)=O)C(C)C` [Compound 13, GG2[A^UA^UA^U]^17-20] is 0.01%; for `CC[C@H](C)[C@H](NC(=O)[C@H](Cc1ccccc1)NC(=O)[C@H](CCC(=O)O)NC(=O)[C@H](CCCCN)NC(=O)[C@H](C)NC(=O)[C@H](C)NC(=O)[C@H](CCC(N)=O)NC(=O)CNC(=O)[C@H](CCC(=O)O)NC(=O)[C@H](CC(C)C)NC(=O)[C@H](Cc1ccc(O)cc1)NC(=O)[C@H](CO)NC(=O)[C@H](CO)NC(=O)[C@@H](NC(=O)[C@H](CC(=O)O)NC(=O)[C@H](CO)NC(=O)[C@@H](NC(=O)[C@H](Cc1ccccc1)NC(=O)[C@@H](NC(=O)CNC(=O)[C@H](CCC(=O)O)NC(=O)CNC(=O)[C@@H](N)Cc1c[nH]cn1)[C@@H](C)O)[C@@H](C)O)C(C)C)C(=O)NC(C)CNC(=O)NC(C)CNC(=O)NC(C)CNC(=O)N[C@@H](CCCCN)C(=O)NCC(=O)N[C@@H](CCCNC(=N)N)C(=O)NCC(N)=O` (stereo partly drawn) [Compound 18, GG2[A^UA^UA^U]^24-27] it is below 0.01%; for `CC[C@H](C)[C@H](NC(=O)[C@H](Cc1ccccc1)NC(=O)[C@H](CCC(=O)O)NC(=O)[C@H](CCCCN)NC(=O)[C@H](C)NC(=O)[C@H](C)NC(=O)[C@H](CCC(N)=O)NC(=O)CNC(=O)NCC(C)NC(=O)NCC(C)NC(=O)NCC(C)NC(=O)[C@H](CO)NC(=O)[C@@H](NC(=O)[C@H](CC(=O)O)NC(=O)[C@H](CO)NC(=O)[C@@H](NC(=O)[C@H](Cc1ccccc1)NC(=O)[C@@H](NC(=O)CNC(=O)[C@H](CCC(=O)O)NC(=O)CNC(=O)[C@@H](N)Cc1c[nH]cn1)[C@@H](C)O)[C@@H](C)O)C(C)C)C(=O)N[C@@H](C)C(=O)N[C@@H](Cc1c[nH]c2ccccc12)C(=O)N[C@@H](CC(C)C)C(=O)N[C@H](C(=O)N[C@@H](CCCCN)C(=O)NCC(=O)N[C@@H](CCCNC(=N)N)C(=O)NCC(N)=O)C(C)C` (stereo partly drawn) [Compound 6, GG2[A^UA^UA^U]^12-15] (I: GQAAKEFIAWLVKGRG-NH2 / II: H-HGEGTFTSDVS; linker I:N-II:C via X6) it is below 0.01%.
The figure for `CC[C@H](C)[C@H](NC(=O)[C@H](Cc1ccccc1)NC(=O)[C@H](CCC(=O)O)NC(=O)[C@H](CCCCN)NC(=O)[C@H](C)NC(=O)NC[C@H](C)NC(=O)NC[C@H](C)NC(=O)NC[C@H](C)NC(=O)[C@H](CC(C)C)NC(=O)[C@H](Cc1ccc(O)cc1)NC(=O)[C@H](CO)NC(=O)[C@H](CO)NC(=O)[C@@H](NC(=O)[C@H](CC(=O)O)NC(=O)[C@H](CO)NC(=O)[C@@H](NC(=O)[C@H](Cc1ccccc1)NC(=O)[C@@H](NC(=O)CNC(=O)[C@H](CCC(=O)O)NC(=O)CNC(=O)[C@@H](N)Cc1c[nH]cn1)[C@@H](C)O)[C@@H](C)O)C(C)C)C(=O)N[C@@H](C)C(=O)N[C@@H](Cc1c[nH]c2ccccc12)C(=O)N[C@@H](CC(C)C)C(=O)N[C@H](C(=O)N[C@@H](CCCCN)C(=O)NCC(=O)N[C@@H](CCCNC(=N)N)C(=O)NCC(N)=O)C(C)C` [Compound 10, GG2[A^UA^UA^U]^15-18] (I: H-HGEGTFTSDVSSYL / II: AKEFIAWLVKGRG-NH2; linker I:C-II:N via X1) is 0.2%; for `CC[C@H](C)[C@H](NC(=O)[C@H](Cc1ccccc1)NC(=O)[C@H](CCC(=O)O)NC(=O)[C@H](CCCCN)NC(=O)[C@H](C)NC(=O)[C@H](C)NC(=O)[C@H](CCC(N)=O)NC(=O)CNC(=O)[C@H](CCC(=O)O)NC(=O)[C@H](CC(C)C)NC(=O)NC[C@H](C)NC(=O)NC[C@H](C)NC(=O)NC[C@H](C)NC(=O)[C@H](CC(=O)O)NC(=O)[C@H](CO)NC(=O)[C@@H](NC(=O)[C@H](Cc1ccccc1)NC(=O)[C@@H](NC(=O)CNC(=O)[C@H](CCC(=O)O)NC(=O)CNC(=O)[C@@H](N)Cc1c[nH]cn1)[C@@H](C)O)[C@@H](C)O)C(=O)N[C@@H](C)C(=O)N[C@@H](Cc1c[nH]c2ccccc12)C(=O)N[C@@H](CC(C)C)C(=O)N[C@H](C(=O)N[C@@H](CCCCN)C(=O)NCC(=O)N[C@@H](CCCNC(=N)N)C(=O)NCC(N)=O)C(C)C` [Compound 3, GG2[A^UA^UA^U]^10-13] it is 0.04%.
Turning to `CC[C@H](C)[C@H](NC(=O)NCC(C)NC(=O)NCC(C)NC(=O)NCC(C)NC(=O)[C@H](C)NC(=O)[C@H](CCC(N)=O)NC(=O)CNC(=O)[C@H](CCC(=O)O)NC(=O)[C@H](CC(C)C)NC(=O)[C@H](Cc1ccc(O)cc1)NC(=O)[C@H](CO)NC(=O)[C@H](CO)NC(=O)[C@@H](NC(=O)[C@H](CC(=O)O)NC(=O)[C@H](CO)NC(=O)[C@@H](NC(=O)[C@H](Cc1ccccc1)NC(=O)[C@@H](NC(=O)CNC(=O)[C@H](CCC(=O)O)NC(=O)CNC(=O)[C@@H](N)Cc1c[nH]cn1)[C@@H](C)O)[C@@H](C)O)C(C)C)C(=O)N[C@@H](C)C(=O)N[C@@H](Cc1c[nH]c2ccccc12)C(=O)N[C@@H](CC(C)C)C(=O)N[C@H](C(=O)N[C@@H](CCCCN)C(=O)NCC(=O)N[C@@H](CCCNC(=N)N)C(=O)NCC(N)=O)C(C)C` (stereo partly drawn) [Compound 15, GG2[A^UA^UA^U]^19-22] (I: H-HGEGTFTSDVSSYLEGQA / II: IAWLVKGRG-NH2; linker I:C-II:N via X8), the “Potency (%), percentage” value is reported as below 0.01%.
The figure for `CC(C)C[C@H](NC(=O)[C@H](Cc1ccc(O)cc1)NC(=O)[C@H](CO)NC(=O)[C@H](CO)NC(=O)[C@@H](NC(=O)[C@H](CC(=O)O)NC(=O)[C@H](CO)NC(=O)[C@@H](NC(=O)[C@H](Cc1ccccc1)NC(=O)[C@@H](NC(=O)CNC(=O)[C@H](CCC(=O)O)NC(=O)CNC(=O)[C@@H](N)Cc1c[nH]cn1)[C@@H](C)O)[C@@H](C)O)C(C)C)C(=O)N[C@@H](CCC(=O)O)C(=O)NCC(=O)N[C@@H](CCC(N)=O)C(=O)N[C@@H](C)C(=O)N[C@@H](C)C(=O)N[C@@H](CCCCN)C(=O)N[C@@H](CCC(=O)O)C(=O)N[C@@H](Cc1ccccc1)C(=O)N[C@@H](C)CNC(=O)N[C@@H](C)CNC(=O)N[C@@H](C)CNC(=O)N[C@H](C(=O)N[C@@H](CCCCN)C(=O)NCC(=O)N[C@@H](CCCNC(=N)N)C(=O)NCC(N)=O)C(C)C` [Compound 17, GG2[A^UA^UA^U]^23-26] is 0.01%.

These data come from patent US11285219B2, “Peptide-oligourea hybrid compounds” (UREKA SARL, priority 2019, dated 2022).
